Tests used:
Assay type in all cases: in vivo
[1] = tested on: EAE mice spinal cords; assay: DNA microarray analysis of EAE mice spinal cords
Text: (§1) (2) Modulation of genes involved in neuroprotection and immune regulation by TSA. a) Microarrays detect protective genes regulated by TSA in EAE mice spinal cords. The inventor pooled RNA from tissues of three animals in each group (TSA treated and vehicle-treated) for DNA microarray analysis. As shown (Table 3), intraperitoneal TSA led to the enhanced expression of mRNAs for the antioxidant glutathione peroxidase (Gpx1) and the neuroprotective insulin-like growth factor 2 (Igf2). […] Intraperitoneal TSA also led to decreased expression in EAE spinal cords of the chemokine receptor CCR6, immunoglobulin V(H)II, the vascular homeostasis-related phospholipase A2, and upregulation of the immunomodulatory factor interferon-α2 (Ifna2), the latter with known beneficial effects in MS patients.
(§2) Microarrays detect protective genes co-regulated by TSA in EAE mice spinal cords and spleens.

[2] = tested on: EAE mice spleens; assay: DNA microarray analysis of EAE mice spleens
Text: as §1
b) Microarrays detect protective genes regulated by TSA in EAE mice spleens. The inventor had previously shown that HDAC mRNAs are elevated in immune cells after stimulation with mitogens or α-CD3 Ab (Dangond et al., 1998) and that HDAC inhibitors block proliferation (Dangond and Gullans, 1998). HDAC inhibition also downregulates pro-inflammatory molecules, including γ-IFN (Dangond and Gullans, 1998), IL-12 (Saemann et al., 2000), IL-12 receptor (Saemann et al., 2000), B7-1 (Bohmig et al., 1997) and TNF-α (Nancey et al., 2002). […] A known histone deacetylase-binding chaperone, 14-3-3 sigma, is also elevated in spleens.
as §2

[3] = tested on: CNS tissue from EAE mice; assay: Quantitative RT-PCR on CNS tissue of EAE mice
Method: (§3) FIG. 8—Identification of gene expression changes induced by HDAC inhibitors in vivo, using reverse transcriptase polymerase chain reaction (RT-PCR). CNS and spleen tissue samples from EAE mice were used to isolate RNA. One step real time quantitative RT-PCR (QRT-PCR) was then performed in triplicate for each sample (n=3 per group of mice) with SYBR Green and an ABI Prism 7700 Sequence Detection System (PE Applied Biosystems, Foster City, Calif.).
(§4) d) Quantitative RT-PCR (QRT-PCR) on CNS and spleen tissues from TSA-treated EAE mice detects numerous genes modulated by this HDAC inhibitor. […] QRT-PCR unveiled new CNS effects of TSA (FIG. 8), including upregulation of the neuronal trait genes sodium channel Nav1.2 and dopamine β hydroxylase (Dbh), and downregulation of the pro-apoptotic factors caspase 2 (casp2) and apoptosis inducing factor (Aif). In spleen tissues, QRT-PCR confirmed elevation of Ifna7 and Adipsin and downregulation of Igκ V22 mRNAs, and unveiled downregulation by TSA of multiple inflammatory factors, such as IL-8 receptor, IL-2 receptor, IL-12, and the costimulatory molecule CD28, from pathways implicated in MS (Glabinsk and Ransohoff, 2001; Dangond, 2002).

[4] = tested on: spleen tissue from EAE mice; assay: Quantitative RT-PCR on spleen tissue of EAE mice; details: TSA-treated EAE mice
Method: as §3, §4

CC(/C=C/C(=O)NO)=C\[C@@H](C)C(=O)c1ccc(N(C)C)cc1 [TSA, Trichostatin A]
Fold Δ CNS, Paired box gene 4 (Pax4) ([1]; Table 5, probe set AB010557, i.p. TSA, EAE mice spinal cord): −12.5 fold
Fold Δ CNS, Axin ([1]; Table 5, probe set AF009011, i.p. TSA, EAE mice spinal cord): 4.9 fold
Fold Δ CNS, DNA methyltransferase (Dnmt1) ([1]; Table 5, probe set AF036008, i.p. TSA, EAE mice spinal cord): −8.8 fold
Fold Δ CNS, Metaxin homolog ([1]; Table 5, probe set AV108173, i.p. TSA, EAE mice spinal cord): −11.6 fold
Fold Δ CNS, Thromboxane A2 receptor (Tbxa2r) ([1]; Table 5, probe set D10849, i.p. TSA, EAE mice spinal cord): −5.2 fold
Fold Δ CNS, Growth differentiation factor (Gdf9) ([1]; Table 5, probe set L06444, i.p. TSA, EAE mice spinal cord): 3.5 fold
Fold Δ CNS, Neurofilament heavy (Nefh) ([1]; Table 5, probe set M35131, i.p. TSA, EAE mice spinal cord): 2.3 fold
Fold Δ CNS, Snail homolog 1 (Snail1) ([1]; Table 5, probe set M95604, i.p. TSA, EAE mice spinal cord): 5.3 fold
Fold Δ CNS, Dishevelled 2 (Dvl2) ([1]; Table 5, probe set U24160, i.p. TSA, EAE mice spinal cord): −2.1 fold
Fold Δ CNS, Rearranged in lymphoma (Frat1) ([1]; Table 5, probe set U58974, i.p. TSA, EAE mice spinal cord): 4.5 fold
Fold Δ CNS, Immunoglobulin H and L variable ([1]; Table 5, probe set U62386, i.p. TSA, EAE mice spinal cord): −2.1 fold
Fold Δ CNS, Cyclin D-interacting Dmp1 (Dmtf1) ([1]; Table 5, probe set U70017, i.p. TSA, EAE mice spinal cord): 5.4 fold
Fold Δ CNS, Neuronal PAS domain 1 (Npas1) ([1]; Table 5, probe set U77967, i.p. TSA, EAE mice spinal cord): 2 fold
Fold Δ CNS, Phospholipase C-beta-1b (Picb1) ([1]; Table 5, probe set U85714, i.p. TSA, EAE mice spinal cord): 3.4 fold
Fold Δ CNS, Glutathione peroxidase (Gpx1) ([1]; Table 5, probe set X03920, i.p. TSA, EAE mice spinal cord): 3 fold
Fold Δ CNS, Immunoglobulin kappa chain (1gk-V20) ([1]; Table 5, probe set X16678, i.p. TSA, EAE mice spinal cord): −3.3 fold
Fold Δ CNS, Paired box gene 2 (Pax2) ([1]; Table 5, probe set X55781, i.p. TSA, EAE mice spinal cord): 7.1 fold
Fold Δ CNS, Max binding protein ROX (Mnt) ([1]; Table 5, probe set Y07609, i.p. TSA, EAE mice spinal cord): −2.2 fold
Fold Change, Ten-m3 ([1]; probe set 92500, spinal cord, I.P. TSA vs vehicle-treated EAE mice): −5.4 fold
Fold Change, Thymopoietin (Tmpo) ([1]; probe set 92782, spinal cord, I.P. TSA vs vehicle-treated EAE mice): −6.4 fold
Fold Change, Histidine ammonia lyase (Ha) ([1]; probe set 92833, spinal cord, I.P. TSA vs vehicle-treated EAE mice): 5.3 fold
Fold Change, SH3 domain protein 2B ([1]; probe set 93275, spinal cord, I.P. TSA vs vehicle-treated EAE mice): 4.5 fold
Fold Change, Hox-3.1 ([1]; probe set 93378, spinal cord, I.P. TSA vs vehicle-treated EAE mice): −5.3 fold
Fold Change, Cdk inhibitor p19 ([1]; probe set 94521, spinal cord, I.P. TSA vs vehicle-treated EAE mice): −5.3 fold
Fold Change, IFN-alpha-2 (1fna2) ([1]; probe set 94717, spinal cord, I.P. TSA vs vehicle-treated EAE mice): 5.6 fold
Fold Change, Histocompatibility 2 D region locus 1 ([1]; probe set 97540, spinal cord, I.P. TSA vs vehicle-treated EAE mice): 7.4 fold
Fold Change, Murinoglobulin (Mug) ([1]; probe set 97680, spinal cord, I.P. TSA vs vehicle-treated EAE mice): −7.2 fold
Fold Change, Transferrin-like p97 ([1]; probe set 97970, spinal cord, I.P. TSA vs vehicle-treated EAE mice): −5.7 fold
Fold Change, Insulin-like growth factor 2 (1gf2) ([1]; probe set 98623, spinal cord, I.P. TSA vs vehicle-treated EAE mice): 5.2 fold
Fold Change, Phospholipase A2 (Pla2) ([1]; probe set 99326, spinal cord, I.P. TSA vs vehicle-treated EAE mice): −6.4 fold
Fold Change, CCR6 ([1]; probe set 99899, spinal cord, I.P. TSA vs vehicle-treated EAE mice): −7.3 fold
Fold Change, Ig V(H)II ([1]; probe set 100362, spinal cord, I.P. TSA vs vehicle-treated EAE mice): −4.9 fold
Fold Change, Glutathione peroxidase (Gpx1) ([1]; probe set 101676, spinal cord, I.P. TSA vs vehicle-treated EAE mice): 6.9 fold
Fold Change, Mapkapk5 ([1]; probe set 104364, spinal cord, I.P. TSA vs vehicle-treated EAE mice): −6.5 fold
Fold Δ Spleen, Paired box gene 4 (Pax4) ([2]; Table 5, probe set AB010557, i.p. TSA, EAE mice spleen): −2.4 fold
Fold Δ Spleen, Axin ([2]; Table 5, probe set AF009011, i.p. TSA, EAE mice spleen): 2.1 fold
Fold Δ Spleen, DNA methyltransferase (Dnmt1) ([2]; Table 5, probe set AF036008, i.p. TSA, EAE mice spleen): −3.2 fold
Fold Δ Spleen, Metaxin homolog ([2]; Table 5, probe set AV108173, i.p. TSA, EAE mice spleen): −4 fold
Fold Δ Spleen, Thromboxane A2 receptor (Tbxa2r) ([2]; Table 5, probe set D10849, i.p. TSA, EAE mice spleen): −4.9 fold
Fold Δ Spleen, Growth differentiation factor (Gdf9) ([2]; Table 5, probe set L06444, i.p. TSA, EAE mice spleen): 5.4 fold
Fold Δ Spleen, Neurofilament heavy (Nefh) ([2]; Table 5, probe set M35131, i.p. TSA, EAE mice spleen): 2.2 fold
Fold Δ Spleen, Snail homolog 1 (Snail1) ([2]; Table 5, probe set M95604, i.p. TSA, EAE mice spleen): 2.9 fold
Fold Δ Spleen, Dishevelled 2 (Dvl2) ([2]; Table 5, probe set U24160, i.p. TSA, EAE mice spleen): −3.6 fold
Fold Δ Spleen, Rearranged in lymphoma (Frat1) ([2]; Table 5, probe set U58974, i.p. TSA, EAE mice spleen): 5.4 fold
Fold Δ Spleen, Immunoglobulin H and L variable ([2]; Table 5, probe set U62386, i.p. TSA, EAE mice spleen): −2.5 fold
Fold Δ Spleen, Cyclin D-interacting Dmp1 (Dmtf1) ([2]; Table 5, probe set U70017, i.p. TSA, EAE mice spleen): 5.2 fold
Fold Δ Spleen, Neuronal PAS domain 1 (Npas1) ([2]; Table 5, probe set U77967, i.p. TSA, EAE mice spleen): −3.5 fold
Fold Δ Spleen, Phospholipase C-beta-1b (Picb1) ([2]; Table 5, probe set U85714, i.p. TSA, EAE mice spleen): 3.7 fold
Fold Δ Spleen, Glutathione peroxidase (Gpx1) ([2]; Table 5, probe set X03920, i.p. TSA, EAE mice spleen): 2.3 fold
Fold Δ Spleen, Immunoglobulin kappa chain (1gk-V20) ([2]; Table 5, probe set X16678, i.p. TSA, EAE mice spleen): −2.3 fold
Fold Δ Spleen, Paired box gene 2 (Pax2) ([2]; Table 5, probe set X55781, i.p. TSA, EAE mice spleen): 2.1 fold
Fold Δ Spleen, Max binding protein ROX (Mnt) ([2]; Table 5, probe set Y07609, i.p. TSA, EAE mice spleen): −3.5 fold
Fold Change, 14-3-3 sigma ([2]; probe set 96704, spleen, I.P. TSA vs vehicle-treated EAE mice): 3.9 fold
Fold Change, Parvalbumin (Pva) ([2]; probe set 96719, spleen, I.P. TSA vs vehicle-treated EAE mice): 6.3 fold
Fold Change, IgH variable ([2]; probe set 96970, spleen, I.P. TSA vs vehicle-treated EAE mice): −3.9 fold
Fold Change, Igκ-V22 ([2]; probe set 97570, spleen, I.P. TSA vs vehicle-treated EAE mice): −4.4 fold
Fold Change, IgA VDJH ([2]; probe set 99420, spleen, I.P. TSA vs vehicle-treated EAE mice): −2.8 fold
Fold Change, Adipsin (Adn) ([2]; probe set 99671, spleen, I.P. TSA vs vehicle-treated EAE mice): 9.0 fold
Fold Change, Galanin receptor 1 (Galr1) ([2]; probe set 99837, spleen, I.P. TSA vs vehicle-treated EAE mice): −4.2 fold
Fold Change, IgE H constant ([2]; probe set 99850, spleen, I.P. TSA vs vehicle-treated EAE mice): −3.1 fold
Fold Change, Kallikrein (Klk) ([2]; probe set 100060, spleen, I.P. TSA vs vehicle-treated EAE mice): 2.8 fold
Fold Change, Lactotransferrin (Ltf) ([2]; probe set 101115, spleen, I.P. TSA vs vehicle-treated EAE mice): −8.2 fold
Fold Change, IgG rearranged κ ([2]; probe set 101616, spleen, I.P. TSA vs vehicle-treated EAE mice): −4.5 fold
Fold Change, IgG variable ([2]; probe set 101752, spleen, I.P. TSA vs vehicle-treated EAE mice): −8.2 fold
Fold Change, V kappa and J kappa coding joint ([2]; probe set 101826, spleen, I.P. TSA vs vehicle-treated EAE mice): −4.2 fold
Fold Change, γ-1 Ig Constant ([2]; probe set 101870, spleen, I.P. TSA vs vehicle-treated EAE mice): −5.0 fold
Fold Change, Interferon alpha 7 (Ifna7) ([2]; probe set 102149, spleen, I.P. TSA vs vehicle-treated EAE mice): 5.8 fold
Fold Change, IgH gene DJC ([2]; probe set 102843, spleen, I.P. TSA vs vehicle-treated EAE mice): −3.6 fold
Fold Change, Snail homolog ([2]; probe set 103830, spleen, I.P. TSA vs vehicle-treated EAE mice): 3.0 fold
fold change of key genes altered, QRT-PCR ([3]; CNS and spleen samples, vs vehicle-treated EAE animals, n=3 per group): > 1.5 fold
Gpx1 mRNA by QRT-PCR ([3]; CNS, TSA-treated EAE mice): elevated
Ifna2 mRNA by QRT-PCR ([3]; CNS, TSA-treated EAE mice): elevated
Mug mRNA by QRT-PCR ([3]; CNS, TSA-treated EAE mice): downregulated
Tmpo mRNA by QRT-PCR ([3]; CNS, TSA-treated EAE mice): downregulated
apoptosis inducing factor (Aif) mRNA by QRT-PCR ([3]; CNS, TSA-treated EAE mice): downregulation
caspase 2 (casp2) mRNA by QRT-PCR ([3]; CNS, TSA-treated EAE mice): downregulation
dopamine β hydroxylase (Dbh) mRNA by QRT-PCR ([3]; CNS, TSA-treated EAE mice): upregulation
sodium channel Nav1.2 mRNA by QRT-PCR ([3]; CNS, TSA-treated EAE mice): upregulation
thromboxane A2 receptor (Tbxa2r) mRNA by QRT-PCR ([3]; CNS, TSA-treated EAE mice): downregulated
Adipsin mRNA by QRT-PCR [4]: elevation
CD28 mRNA by QRT-PCR [4]: downregulation
IL-2 receptor mRNA by QRT-PCR [4]: downregulation
IL-8 receptor mRNA by QRT-PCR [4]: downregulation
IL-12 mRNA by QRT-PCR [4]: downregulation
Ifna7 mRNA by QRT-PCR [4]: elevation
Igκ V22 mRNA by QRT-PCR [4]: downregulation

— patent publication US20040077591A1, “Histone deacetylase inhibitors for the treatment of multiple sclerosis, amyotrophic lateral sclerosis and Alzheimer's Disease” (The Brigham and Women's Hospital, Inc., priority 2002, published 2004)
